Test [1] has as its target Tubulin alpha chain (Sus scrofa) (UniProt P02550). Description: Initial tubulin polymerization rate relative to taxol. The format is functional.
The subject of another test is HCT-116. Description: In vitro inhibition of proliferation of human colon cancer line 116 after 72 hrs incubation. The format is functional, cell-based. The conditions noted are these: HCT-116, 72 h.
In test [2] the test system is Mus musculus. Description: Compound was evaluated in vivo against i.p. implanetd M109 tumor on day 5 and 8 post implantation at a dose of 40 mg/kg/injection when administered i.p. The conditions noted are these: route intraperitoneal. Format: functional.
In test [3] the test system is Mus musculus. Kind of test: Compound was evaluated in vivo against i.p. implanetd M109 tumor on day 5 and 8 post implantation at a dose of 30 mg/kg/injection when administered i.p. Format: functional. The conditions noted are these: route intraperitoneal.
Test [4] relates to Mus musculus. Kind of test: Compound was evaluated in vivo against i.p. implanetd M109 tumor on day 5 and 8 post implantation at a dose of 32 mg/kg/injection when administered i.p. The format is functional. Conditions: route intraperitoneal.
Test [5] has as its system Mus musculus. Description: Compound was evaluated in vivo against i.p. implanetd M109 tumor on day 5 and 8 post implantation at a dose of 50 (mg/kg/inj)when administered i.p. The format is functional.
Test [6] relates to Mus musculus. Kind of test: Compound was evaluated in vivo against i.p. implanetd M109 tumor on day 5 and 8 post implantation at a dose of 132 mg/kg/injection when administered i.p. The format is functional. Conditions: route intraperitoneal.
The test system of test [7] is Mus musculus. Description: Compound was evaluated in vivo against i.p. implanetd M109 tumor on day 5 and 8 post implantation at a dose of 64 mg/kg/injection when administered i.p. The format is functional. The conditions noted are these: route intraperitoneal.
Test [8] concerns Mus musculus. Kind of test: Compound was evaluated in vivo against i.p. implanetd M109 tumor on day 5 and 8 post implantation at a dose of 60 mg/kg/injection when administered i.p. The format is functional. Conditions: route intraperitoneal.
The test system of test [9] is Mus musculus. Description: Compound was evaluated in vivo against i.p. implanetd M109 tumor on day 5 and 8 post implantation when administered i.p.; Scheduled. Format: functional, organism-based.
Test [10] concerns Mus musculus. Description: Compound was evaluated in vivo against i.p. implanted M109 tumor on day 5 and 8 post implantation at a dose of 50-75 mg/kg/injection when administered i.p. Format: functional.
Test [11] deals with Mus musculus. Description: Compound was evaluated in vivo against i.p. implanetd M109 tumor on day 5 and 8 post implantation at a dose of 80 mg/kg/injection when administered i.p. The format is functional. The conditions noted are these: route intraperitoneal.

Each structure is given as a SMILES string.

This note sets out measurements from ChEMBL document CHEMBL1151531, “Taxol structure-activity relationships: synthesis and biological evaluation of taxol analogs modified at C-7” (Bioorg Med Chem Lett, 1994).

Tubulin alpha chain (Sus scrofa), sequence (P02550 whole entry, looked up): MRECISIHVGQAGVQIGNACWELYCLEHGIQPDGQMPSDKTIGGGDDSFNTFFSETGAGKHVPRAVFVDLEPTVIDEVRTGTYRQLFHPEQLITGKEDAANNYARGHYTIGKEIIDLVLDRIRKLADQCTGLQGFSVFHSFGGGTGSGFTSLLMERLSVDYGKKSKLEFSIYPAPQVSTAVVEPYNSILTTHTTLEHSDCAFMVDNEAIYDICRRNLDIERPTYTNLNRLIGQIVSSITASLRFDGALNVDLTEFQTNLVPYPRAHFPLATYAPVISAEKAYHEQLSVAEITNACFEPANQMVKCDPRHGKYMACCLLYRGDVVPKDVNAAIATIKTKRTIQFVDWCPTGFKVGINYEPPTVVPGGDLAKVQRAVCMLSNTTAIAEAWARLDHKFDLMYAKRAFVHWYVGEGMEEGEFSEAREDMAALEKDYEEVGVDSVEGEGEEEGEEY

For the molecule `CCCCNC(=O)OC1C[C@H]2OC[C@@]2(OC(C)=O)C2[C@H](OC(=O)c3ccccc3)[C@]3(O)C[C@H](OC(=O)[C@H](O)[C@@H](NC(=O)c4ccccc4)c4ccccc4)C(C)=C([C@@H](OC(C)=O)C(=O)[C@]12C)C3(C)C` (stereo partly drawn), in [1], the Initial rate ratio was found to be 0.96. This molecule also had an IC50 in the test with HCT-116 of 46 nM.

For the molecule `CC(=O)O[C@H]1C(=O)[C@]2(C)C(OC(=O)NCCCC(=O)O)C[C@H]3OC[C@@]3(OC(C)=O)C2[C@H](OC(=O)c2ccccc2)[C@]2(O)C[C@H](OC(=O)[C@H](O)[C@@H](NC(=O)c3ccccc3)c3ccccc3)C(C)=C1C2(C)C` (stereo partly drawn), the Initial rate ratio in [1] worked out at 0.71. Moreover, the IC50 in the test on HCT-116 was > 3900 nM.

As for `CC(=O)O[C@H]1C(=O)[C@@]2(C)C([C@H](OC(=O)c3ccccc3)[C@]3(O)C[C@H](OC(=O)[C@H](O)[C@@H](NC(=O)c4ccccc4)c4ccccc4)C(C)=C1C3(C)C)[C@]1(OC(C)=O)CO[C@@H]1C[C@@H]2OS(C)(=O)=O` (stereo partly drawn), the Initial rate ratio in test [1] is 1.1.

With `CC(=O)O[C@H]1C(=O)[C@@]2(C)C([C@H](OC(=O)c3ccccc3)[C@]3(O)C[C@H](OC(=O)[C@H](O)[C@@H](NC(=O)OC(C)(C)C)c4ccccc4)C(C)=C1C3(C)C)[C@]1(OC(C)=O)CO[C@@H]1C[C@H]2F` (stereo partly drawn), the Initial rate ratio in test [1] came out at 0.8. In addition, the “Max T/C” value in the test with Mus musculus [2] is recorded as 147. It took 4.7 nM to reach half-maximal inhibition in the test on HCT-116 (IC50).

For `CC(=O)O[C@H]1C(=O)[C@@]2(C)C([C@H](OC(=O)c3ccccc3)[C@]3(O)C[C@H](OC(=O)[C@H](O)[C@@H](NC(=O)c4ccccc4)c4ccccc4)C(C)=C1C3(C)C)[C@]1(OC(C)=O)CO[C@@H]1C[C@H]2O` (stereo partly drawn), the entries for the “Max T/C” value in the test with Mus musculus [3] and in the test on Mus musculus [4] were 126 and 154, respectively. This molecule also gave an IC50 in the test with HCT-116 of 2 nM.

Turning to `CC(=O)O[C@H]1C(=O)[C@]2(C)CC[C@H]3OC[C@@]3(OC(C)=O)C2[C@H](OC(=O)c2ccccc2)[C@]2(O)C[C@H](OC(=O)[C@H](O)[C@@H](NC(=O)c3ccccc3)c3ccccc3)C(C)=C1C2(C)C` (stereo partly drawn), in [1], the Initial rate ratio was 0.23. In addition, the “Max T/C” value in the test on Mus musculus [5] was determined as 157. The molecule further had an IC50 with HCT-116 of 4 nM.

Regarding `CC(=O)O[C@H]1C(=O)[C@@]2(C)C([C@H](OC(=O)c3ccccc3)[C@]3(O)C[C@H](OC(=O)[C@H](O)[C@@H](NC(=O)c4ccccc4)c4ccccc4)C(C)=C1C3(C)C)[C@]1(OC(C)=O)CO[C@@H]1C[C@H]2F` (stereo partly drawn), the “Max T/C” value with Mus musculus [6] came out at 185. The Initial rate ratio in test [1] is 1.45. The molecule also displayed an IC50 in the test on HCT-116 of 11 nM.

As to `CC(=O)O[C@H]1C(=O)[C@]2(C)C(OC(=O)NCCN(C)C)C[C@H]3OC[C@@]3(OC(C)=O)C2[C@H](OC(=O)c2ccccc2)[C@]2(O)C[C@H](OC(=O)[C@H](O)[C@@H](NC(=O)c3ccccc3)c3ccccc3)C(C)=C1C2(C)C` (stereo partly drawn), the Initial rate ratio in test [1] was 0.4. In the test with HCT-116, the IC50 is > 100 nM.

For `CC(=O)O[C@H]1C(=O)[C@]2(C)CC[C@H]3OC[C@@]3(OC(C)=O)C2[C@H](OC(=O)c2ccccc2)[C@]2(O)C[C@H](OC(=O)[C@H](O)[C@@H](NC(=O)OC(C)(C)C)c3ccccc3)C(C)=C1C2(C)C` (stereo partly drawn), the Initial rate ratio in [1] is 0.8. In the test on HCT-116, this molecule registered an IC50 of 1.6 nM. Further, in the test on Mus musculus [7], the “Max T/C” value is reported as 156.

With `CCOC(=O)O[C@H]1C[C@H]2OC[C@@]2(OC(C)=O)C2[C@H](OC(=O)c3ccccc3)[C@]3(O)C[C@H](OC(=O)[C@H](O)[C@@H](NC(=O)c4ccccc4)c4ccccc4)C(C)=C([C@@H](OC(C)=O)C(=O)[C@@]21C)C3(C)C` (stereo partly drawn), the Initial rate ratio in test [1] came out at 0.72. Besides, the “Max T/C” value in the test on Mus musculus [2] amounted to 289. This molecule came in with an IC50 in the test with HCT-116 of 6 nM.

For `CC(=O)O[C@H]1C(=O)[C@]2(C)C(O[Si](C)(C)C)C[C@H]3OC[C@@]3(OC(C)=O)C2[C@H](OC(=O)c2ccccc2)[C@]2(O)C[C@H](OC(=O)[C@H](O)[C@@H](NC(=O)c3ccccc3)c3ccccc3)C(C)=C1C2(C)C` (stereo partly drawn), the Initial rate ratio in test [1] was 0. Further, in the test with HCT-116, the IC50 was > 60 nM.

As to `CC(=O)O[C@H]1C(=O)[C@]2(C)C(O[Si](C)(C)c3ccccc3)C[C@H]3OC[C@@]3(OC(C)=O)C2[C@H](OC(=O)c2ccccc2)[C@]2(O)C[C@H](OC(=O)[C@H](O)[C@@H](NC(=O)c3ccccc3)c3ccccc3)C(C)=C1C2(C)C` (stereo partly drawn), the Initial rate ratio in test [1] is 0. The IC50 in the test on HCT-116 was > 78 nM.

Consider `CC(=O)O[C@H]1C(=O)[C@]2(C)C=C[C@H]3OC[C@@]3(OC(C)=O)C2[C@H](OC(=O)c2ccccc2)[C@]2(O)C[C@H](OC(=O)[C@H](O)[C@@H](NC(=O)c3ccccc3)c3ccccc3)C(C)=C1C2(C)C` (stereo partly drawn), for which the “Max T/C” value with Mus musculus [8] was 161. For the same molecule, the Initial rate ratio in test [1] was determined as 1.31. Moreover, in the test on HCT-116, the midpoint of inhibition, the IC50, lay at 5 nM.

`CC(=O)O[C@@]12CO[C@@H]1C[C@H](O)[C@@]1(C)C(=O)[C@H](O)C3=C(C)[C@@H](OC(=O)[C@H](O)[C@@H](NC(=O)OC(C)(C)C)c4ccccc4)C[C@@](O)([C@@H](OC(=O)c4ccccc4)[C@H]21)C3(C)C` [DOCETAXEL]: the “Max T/C” value in the test on Mus musculus [9] is “Scheduled”. The Initial rate ratio in test [1] was 2. The molecule also had an IC50 with HCT-116 of 3 nM.

`CC(=O)O[C@H]1C(=O)[C@@]2(C)[C@H]([C@H](OC(=O)c3ccccc3)[C@]3(O)C[C@H](OC(=O)[C@H](O)[C@@H](NC(=O)c4ccccc4)c4ccccc4)C(C)=C1C3(C)C)[C@]1(OC(C)=O)CO[C@@H]1C[C@@H]2O` [PACLITAXEL]: the “Max T/C” value in the test on Mus musculus [10] is reported as 276.

In the case of `CC(=O)O[C@H]1C(=O)[C@]23C[C@H]2C[C@H]2OC[C@@]2(OC(C)=O)C3[C@H](OC(=O)c2ccccc2)[C@]2(O)C[C@H](OC(=O)[C@H](O)[C@@H](NC(=O)c3ccccc3)c3ccccc3)C(C)=C1C2(C)C` (stereo partly drawn), the Initial rate ratio in test [1] is 0.56. Also, in the test with Mus musculus [11], the “Max T/C” value is recorded as 156. The molecule further returned an IC50 in the test on HCT-116 of 8 nM.

`CC(=O)O[C@H]1C(=O)[C@@]2(C)C([C@H](OC(=O)c3ccccc3)[C@]3(O)C[C@H](OC(=O)[C@H](O)[C@@H](NC(=O)c4ccccc4)c4ccccc4)C(C)=C1C3(C)C)[C@]1(OC(C)=O)CO[C@@H]1C[C@@H]2OC(=O)CCl` (stereo partly drawn): in [1], the Initial rate ratio was determined as 0.81. The IC50 with HCT-116 is 7 nM.

On to `CC[Si](CC)(CC)OC1C[C@H]2OC[C@@]2(OC(C)=O)C2[C@H](OC(=O)c3ccccc3)[C@]3(O)C[C@H](OC(=O)[C@H](O)[C@@H](NC(=O)c4ccccc4)c4ccccc4)C(C)=C([C@@H](OC(C)=O)C(=O)[C@]12C)C3(C)C` (stereo partly drawn), for which, in test [1], the Initial rate ratio was determined as 0.53. Besides, the IC50 in the test on HCT-116 was > 78 nM.
